From patent US20240269139A1, “COMPOUNDS FOR TARGETED PROTEIN DEGRADATION OF KINASES” (DANA-FARBER CANCER INSTITUTE, INC., priority 2020, published 2024) come the findings set out here.

Common to all, as to format: cell-based
Test [1] has as its target T1, protein kinases (human kinome) (Homo sapiens, UniProt O14965).
T1 sequence (O14965 1-403): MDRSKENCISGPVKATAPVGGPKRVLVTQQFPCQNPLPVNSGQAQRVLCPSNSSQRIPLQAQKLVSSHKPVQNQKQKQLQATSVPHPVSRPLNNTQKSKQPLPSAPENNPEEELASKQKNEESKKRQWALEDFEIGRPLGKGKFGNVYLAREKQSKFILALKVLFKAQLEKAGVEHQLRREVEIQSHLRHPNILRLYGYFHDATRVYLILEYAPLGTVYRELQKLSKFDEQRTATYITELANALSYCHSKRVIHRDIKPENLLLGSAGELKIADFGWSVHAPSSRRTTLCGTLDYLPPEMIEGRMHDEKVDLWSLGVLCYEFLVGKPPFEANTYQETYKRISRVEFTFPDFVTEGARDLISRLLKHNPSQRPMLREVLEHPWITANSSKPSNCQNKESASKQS

Test [2] deals with protein kinases (human kinome) (Homo sapiens, UniProt P16591). Particulars: for logFC of FER (P16591-1): Experiment wp146, down; for logFC of FER: FER P16591-1, experiment wp146.
protein kinases (human kinome) (Homo sapiens, UniProt P16591), sequence (P16591 whole entry): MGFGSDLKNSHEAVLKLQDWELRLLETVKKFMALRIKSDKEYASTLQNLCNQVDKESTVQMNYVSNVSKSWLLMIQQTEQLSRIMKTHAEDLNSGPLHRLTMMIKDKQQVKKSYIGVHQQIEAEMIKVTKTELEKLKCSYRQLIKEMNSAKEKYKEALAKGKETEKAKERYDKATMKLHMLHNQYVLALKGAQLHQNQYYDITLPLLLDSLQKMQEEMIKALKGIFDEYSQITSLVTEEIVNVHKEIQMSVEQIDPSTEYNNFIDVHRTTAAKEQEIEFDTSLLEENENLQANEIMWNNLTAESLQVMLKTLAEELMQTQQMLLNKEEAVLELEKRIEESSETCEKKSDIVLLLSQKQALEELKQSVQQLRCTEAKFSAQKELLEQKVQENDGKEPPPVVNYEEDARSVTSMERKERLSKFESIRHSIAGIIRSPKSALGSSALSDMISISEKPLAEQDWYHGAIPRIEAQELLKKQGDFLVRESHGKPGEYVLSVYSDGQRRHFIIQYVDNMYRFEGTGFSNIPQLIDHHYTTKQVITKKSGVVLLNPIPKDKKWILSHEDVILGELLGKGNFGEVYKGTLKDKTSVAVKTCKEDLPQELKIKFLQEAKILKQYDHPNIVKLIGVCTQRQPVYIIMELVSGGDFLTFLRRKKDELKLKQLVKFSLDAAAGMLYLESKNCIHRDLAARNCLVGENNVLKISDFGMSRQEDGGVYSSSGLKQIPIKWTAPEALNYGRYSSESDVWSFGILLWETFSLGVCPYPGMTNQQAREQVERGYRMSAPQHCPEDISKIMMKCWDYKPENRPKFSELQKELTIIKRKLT
Test [3] has as its target protein kinases (human kinome) (Homo sapiens, UniProt Q2M2I8).
The test system of test [4] is protein kinases (human kinome). The note with it: for logFC MAPK8: MAPK8 P45983-4; for logFC RPS6KA1: RPS6KA1 (Q15418-2); for logFC ABL1: ABL1 (P00519-2); for logFC of SRC: Accession P12931-2; for logFC LCK: accession P06239-3.
Test [5] concerns the target protein kinases (human kinome) (Homo sapiens, UniProt P30291). Particulars: for logFC of WEE1: WEE1 P30291-1.
Where [6] appears, read: AAK1 (Q2M218-1), experiment wp146, down.
The mark [7] stands for this setting: AAK1, accession Q2M218-1, experiment wp146, direction of change down.
Where [8] appears, read: AURKB Q96GD4-5, experiment wp146.
Where [9] appears, read: Accession P49841-2, experiment wp146, direction down.
[10] abbreviates: CDK9 (P50750-2) protein abundance, degrader vs DMSO, down.
The mark [11] stands for this setting: CLK1 P49759-3, experiment wp146.
[12] abbreviates: Experiment wp146, direction down.
Where [13] appears, read: GSK3B P49841-2, experiment wp146.
The mark [14] stands for this setting: Accession P06241-2, experiment wp071.
Where [15] appears, read: experiment wp071, direction of change down.
[16] abbreviates: experiment wp131, direction of change down.

Where two headings read alike, the source gives them in different places.

protein kinases (human kinome) (Homo sapiens, UniProt P30291), sequence (P30291 whole entry): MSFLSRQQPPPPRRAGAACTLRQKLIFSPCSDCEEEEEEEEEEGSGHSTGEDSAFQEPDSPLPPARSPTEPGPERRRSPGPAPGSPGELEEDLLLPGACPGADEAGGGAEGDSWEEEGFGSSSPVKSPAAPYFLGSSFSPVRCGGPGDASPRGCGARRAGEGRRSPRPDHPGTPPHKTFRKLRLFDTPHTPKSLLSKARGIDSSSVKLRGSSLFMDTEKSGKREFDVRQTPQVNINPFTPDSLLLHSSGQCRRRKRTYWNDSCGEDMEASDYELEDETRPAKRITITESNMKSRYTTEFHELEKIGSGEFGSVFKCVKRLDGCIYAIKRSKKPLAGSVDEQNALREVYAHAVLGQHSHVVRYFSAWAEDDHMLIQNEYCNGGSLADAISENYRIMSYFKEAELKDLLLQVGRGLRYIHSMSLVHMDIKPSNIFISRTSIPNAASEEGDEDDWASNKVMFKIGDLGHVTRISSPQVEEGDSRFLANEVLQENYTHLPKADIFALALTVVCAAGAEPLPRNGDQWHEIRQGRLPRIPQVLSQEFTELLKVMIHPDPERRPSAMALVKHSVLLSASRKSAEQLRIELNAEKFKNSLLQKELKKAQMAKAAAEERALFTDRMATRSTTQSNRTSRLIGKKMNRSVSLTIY
protein kinases (human kinome) (Homo sapiens, UniProt Q2M2I8), sequence (Q2M2I8 whole entry): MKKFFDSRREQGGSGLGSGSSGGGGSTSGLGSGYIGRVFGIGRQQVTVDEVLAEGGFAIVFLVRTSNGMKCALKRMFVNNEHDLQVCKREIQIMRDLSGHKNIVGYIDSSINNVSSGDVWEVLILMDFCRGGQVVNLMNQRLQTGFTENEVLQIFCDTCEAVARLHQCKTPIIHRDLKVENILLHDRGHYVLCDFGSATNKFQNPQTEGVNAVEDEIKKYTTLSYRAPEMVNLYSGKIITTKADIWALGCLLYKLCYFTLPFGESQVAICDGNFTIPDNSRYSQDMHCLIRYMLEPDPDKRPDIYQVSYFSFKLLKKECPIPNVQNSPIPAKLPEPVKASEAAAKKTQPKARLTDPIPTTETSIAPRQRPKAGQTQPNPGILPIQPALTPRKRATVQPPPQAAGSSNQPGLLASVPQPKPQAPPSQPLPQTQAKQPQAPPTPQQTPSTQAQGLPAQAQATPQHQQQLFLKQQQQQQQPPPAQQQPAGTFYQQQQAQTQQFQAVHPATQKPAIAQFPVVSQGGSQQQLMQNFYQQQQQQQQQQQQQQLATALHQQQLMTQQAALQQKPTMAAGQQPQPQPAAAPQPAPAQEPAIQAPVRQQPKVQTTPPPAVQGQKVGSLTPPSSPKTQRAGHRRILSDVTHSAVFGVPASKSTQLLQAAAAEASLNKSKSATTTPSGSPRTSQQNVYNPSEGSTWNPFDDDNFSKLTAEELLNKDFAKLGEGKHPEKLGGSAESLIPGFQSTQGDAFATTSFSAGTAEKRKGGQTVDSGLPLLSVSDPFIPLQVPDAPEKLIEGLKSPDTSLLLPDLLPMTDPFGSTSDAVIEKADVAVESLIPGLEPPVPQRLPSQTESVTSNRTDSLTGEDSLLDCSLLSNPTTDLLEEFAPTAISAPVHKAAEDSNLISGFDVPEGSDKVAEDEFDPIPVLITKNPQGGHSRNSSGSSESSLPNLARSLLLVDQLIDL

As to `NC(=O)c1c(F)cccc1Nc1nc(Nc2ccc(S(=O)(=O)NCCOCCOCCOCCOCCNc3cccc4c3C(=O)N(C3CCC(=O)NC3=O)C4=O)cc2)ncc1Br` (stereo not drawn) [TMX.02.138], in test [1] (experiment wp146), the “logFC AURKA (O14965)” value was −2.933. For the same compound, in test [2], the “logFC of FER (P16591-1)” value was −0.8083 and the “logFC of FER” value is reported as −0.8083. The “logFC AAK1” value in test [3] (setting [6]) is −1.129. The “logFC AAK1” value in test [3] (setting [7]) is on record as −1.129. For the same compound, in test [4] (setting [8]), the logFC is recorded as −1.832 and the “logFC AURKB” value is listed as −1.832. Also, the “logFC GSK3B” value in test [4] (setting [9]) was −0.604. Moreover, the logFC in test [4] (setting [10]) is recorded as −1.889. Further, in test [4] (setting [11]), the logFC is listed as −0.4648 and the “logFC CLK1” value was −0.4648. In test [4] (setting [12]), the “logFC MAPK8 (P45983-4)” value is −0.9813 and the “logFC PRKAA1 (Q13131-2)” value is −0.7125. Besides, the “logFC GSK3B” value in test [4] (setting [13]) is on record as −0.604. Further, in test [4] (experiment wp146), the “logFC MAPK8” value is recorded as −0.9813, the “logFC RPS6KA1” value is −0.501, the “logFC CDK9 (P50750-2)” value was −1.889 and the “logFC CDK16 (Q00536-2)” value was −1.434. In addition, in test [4] (experiment wp146), the “logFC PRKAA1 (Q13131-2)” value is listed as −0.7125 and the “logFC RPS6KA1 (Q15418-2)” value is given as −0.501.
On to `Nc1ncnc2c1c(-c1ccc(Oc3ccccc3)cc1)nn2[C@H]1CC[C@H](N2CCN(CCOCCNC(=O)CNc3cccc4c3C(=O)N(C3CCC(=O)NC3=O)C4=O)CC2)CC1` (stereo partly drawn) [SB1.G.181], for which the “logFC AURKA (O14965)” value in test [1] (experiment wp071) is −0.3684. In addition, in test [4] (experiment wp071), the “logFC ABL1” value is given as −1.735, the “logFC of SRC” value is listed as −2.478 and the “logFC ABL1 (P00519-2)” value was −1.735. The “logFC FYN” value in test [4] (setting [14]) is −2.276. Further, in test [4] (FYN P06241-2, experiment wp071), the “logFC FYN” value is listed as −2.276. For the same compound, in test [4] (setting [15]), the “logFC LCK” value is recorded as −1.774 and the “logFC LCK (P06239-3)” value was −1.774. The logFC in test [4] (SRC (P12931-2) protein abundance, degrader vs DMSO, down) is −2.478.
Turning to `Cc1cc(Nc2ncc(Br)c(Nc3cccc(F)c3C(N)=O)n2)ccc1S(=O)(=O)NCCOCCOCCOCCOCCNc1cccc2c1C(=O)N(C1CCC(=O)NC1=O)C2=O` (stereo not drawn) [TMX.02.174], the “logFC AURKA (O14965)” value in test [1] (experiment wp146) is reported as −2.865. Also, in test [2], the “logFC of FER (P16591-1)” value is on record as −1.089 and the “logFC of FER” value is given as −1.089. Besides, in test [5] (experiment wp146), the “logFC of WEE1” value is on record as −1.142 and the “logFC WEE1 (P30291-1)” value was −1.142. Further, the “logFC AAK1” value in test [3] (setting [6]) is recorded as −1.62. Also, in test [3] (setting [7]), the “logFC AAK1” value is −1.62. Also, in test [4] (setting [8]), the logFC was −1.578 and the “logFC AURKB” value was −1.578. For the same compound, the “logFC GSK3B” value in test [4] (setting [9]) is given as −0.6472. Further, the logFC in test [4] (setting [10]) is listed as −1.666. In test [4] (setting [11]), the logFC is reported as −0.4606 and the “logFC CLK1” value is on record as −0.4606. In addition, in test [4] (setting [12]), the “logFC MAPK8 (P45983-4)” value is −0.7761 and the “logFC PRKAA1 (Q13131-2)” value is −1.622. Further, the “logFC GSK3B” value in test [4] (setting [13]) was −0.6472. Further, in test [4] (experiment wp146), the “logFC MAPK8” value is −0.7761, the “logFC RPS6KA1” value is listed as −0.6638, the “logFC CDK9 (P50750-2)” value is reported as −1.666 and the “logFC CDK16 (Q00536-2)” value is recorded as −1.176. Further, in test [4] (experiment wp146), the “logFC PRKAA1 (Q13131-2)” value was −1.622 and the “logFC RPS6KA1 (Q15418-2)” value was −0.6638. Besides, the “logFC NEK1 (Q96PY6-3)” value in test [4] (experiment wp146, direction of change down) is −0.3871. The “logFC NEK1” value in test [4] (protein NEK1 (Q96PY6-3), experiment wp146, down) is −0.3871.
As to `CNC(=O)c1ccccc1Nc1cc(Nc2ccc(N3CCN(CCOCCOCCNC(=O)CNc4cccc5c4C(=O)N(C4CCC(=O)NC4=O)C5=O)CC3)cc2OC)ncc1C(F)(F)F` (stereo not drawn) [MFH.5.103.1], the “logFC AURKA (O14965)” value in test [1] (experiment wp076) and in test [1] (experiment wp078) was −0.9893 each time. Moreover, the “logFC WEE1 (P30291-1)” value in test [5] (experiment wp076) is given as −0.9694. Also, the “logFC RPS6KA1” value in test [4] (experiment wp076) is −1.583. The “logFC RPS6KA1 (Q15418-2)” value in test [4] (experiment wp076) was −1.583.
With `Cn1c(=O)c(-c2c(Cl)cccc2Cl)cc2cnc(Nc3ccc(OCCNC(=O)CCCCCCNC(=O)COc4cccc5c4C(=O)N(C4CCC(=O)NC4=O)C5=O)cc3)nc21` (stereo not drawn) [SB1.G.192.1], the “logFC AURKA (O14965)” value in test [1] (experiment wp071) is reported as −0.8111; in test [1] (experiment wp081), −0.7299; in test [1] (experiment wp131), −0.6267. The “logFC of WEE1” value in test [5] (experiment wp081) is given as −1.764; in test [5] (experiment wp131), −1.647. For the same compound, the figures for the “logFC WEE1 (P30291-1)” value in test [5] (experiment wp071), in test [5] (experiment wp081) and in test [5] (experiment wp131) were −2.367, −1.764 and −1.647, respectively. The “logFC ABL1” value in test [4] (experiment wp071) is listed as −1.417; in test [4] (experiment wp081), −1.189. Also, the “logFC FYN” value in test [4] (setting [14]) is reported as −1.595; in test [4] (Accession P06241-2, experiment wp081), −0.9994; in test [4] (Accession P06241-2, experiment wp131), −0.9918; in test [4] (FYN P06241-2, experiment wp071) it was −1.595; in test [4] (FYN P06241-2, experiment wp081), −0.9994; in test [4] (FYN P06241-2, experiment wp131), −0.9918. Further, the “logFC of SRC” value in test [4] (experiment wp071) is listed as −2.578; in test [4] (experiment wp081) it was −2.113; in test [4] (experiment wp131), −2.127. For the same compound, the “logFC TNK2 (Q07912-3)” value in test [4] (Experiment wp071, direction down) is −1.728; in test [4] (Experiment wp081, direction down), −0.9024. The “logFC LCK” value in test [4] (setting [15]) was −1.767; in test [4] (setting [16]), −1.701. Besides, the logFC in test [4] (TNK2 (Q07912-3), experiment wp071, direction down) is listed as −1.728; in test [4] (TNK2 (Q07912-3), experiment wp081, direction down) it was −0.9024. For the same compound, the “logFC ABL1 (P00519-2)” value in test [4] (experiment wp071) was −1.417; in test [4] (experiment wp081) it was −1.189. The “logFC LCK (P06239-3)” value in test [4] (setting [15]) is recorded as −1.767; in test [4] (setting [16]), −1.701. Also, the “logFC ABL2 (P42684-5)” value in test [4] (experiment wp131) was −2.8. Further, the “logFC of ABL2 (P42684-5)” value in test [4] (experiment wp131) is reported as −2.8.
In the case of `Cc1cnc(Nc2ccc(N3CCN(CCOCCOCCNC(=O)COc4cccc5c4C(=O)N(C4CCC(=O)NC4=O)C5=O)CC3)cc2)nc1Nc1cccc(S(=O)(=O)NC(C)(C)C)c1` (stereo not drawn) [JWG.118], the “logFC AURKA (O14965)” value in test [1] (experiment wp071) is −0.8861. The “logFC AAK1” value in test [3] (AAK1 (Q2M218-1), experiment wp071, down) is reported as −3.044; in test [3] (AAK1, accession Q2M218-1, experiment wp071, direction of change down) it was −3.044. For the same compound, in test [4] (GK P32189-3, experiment wp071), the logFC was −0.4317.
